Results taken from publication PMC10054553, “Development of the First ^18F-Labeled Radiohybrid-Based Minigastrin Derivative with High Target Affinity and Tumor Accumulation by Substitution of the Chelating Moiety” (Pharmaceutics, 2023).

Tests used:
[1] = Lipophilicity (logD7.4), n-octanol/PBS pH 7.4; assay type: physicochemical
Protocol: Cell-based experiments and determination of lipophilicity (logD7.4) were performed as previously published. A detailed description of the in vitro experiments is provided in the Supplementary Materials.
Cell Culture. CCK-2R-expressing rat pancreatic cancer cells AR42J (CLS GmbH, Eppelheim, Germany) were cultivated in monolayers in CELLSTAR® cell culture flasks acquired from Greiner Bio-One GmbH (Frickenhausen, Germany) at 37°C in a humidified atmosphere (5% CO2) using a HERAcell 150i-Incubator (Thermo Fisher Scientific Inc., Waltham, United States). The nutrient medium RPMI 1640 medium, supplemented with 5 mM L-Gln 5 mL non-essential amino acids (100×) and 10% FCS, was used. Furthermore, a Dulbecco’s PBS solution with 0.1% EDTA (v/v) was applied to detach the cells for cell passaging. The detached cells were counted using a Neubauer hemocytometer (Paul Marienfeld, Lauda-Königshofen, Germany). In addition, all operations under sterile conditions were accomplished using a MSC-Advantage safety workbench (Thermo Fisher Scientific Inc., Waltham, United States).
Determination of IC50. AR42J cells (2.0 × 10^5 cells/well) were seeded into 24-well plates 24 ± 2 h prior to testing using 1 mL of nutrient medium (RPMI 1640, 5 mM L-Gln, 5 mL non-essential amino acids (100×), 10% FCS). Cells were incubated at 37°C in a humidified atmosphere (5% CO2).
After the removal of the medium, each well was washed with 500 μL PBS. For the cell-based assay, 200 μL of the nutrient medium (+5% BSA), [ 177Lu]Lu-DOTA-PP-F11N (25 μL, 0.3 pmol) as a radiolabeled reference and 25 μL of the peptide of interest in increasing concentrations (10 −10 to 10−4 M) were added to the cells in triplicate. Thereafter, the assay was incubated for 3 h at 37°C and the supernatant was collected. The cells were washed with 300 μL PBS and the collected supernatant fractions were unified.
After lysis of the cells with NaOH (300 μL, 1 N) for 15 min, the respective wells were washed with NaOH (300 μ L, 1 N) and both fractions were unified. The radioactivity of both the supernatant and the lysed fractions were quantified using a γ-counter (PerkinElmer Inc., Waltham, United States). The obtained data were evaluated via the GraphPad PRISM software (GraphPad Software Inc., La Jolla, United States), which calculates the half-maximal inhibitory concentration (IC50) of the peptides.
Internalization Studies. For the determination of the internalization kinetics of the various peptides, AR42J cells (3.0 × 10^5 cells/well) were seeded into polylysine-coated 24-well plates, adding 1 mL of nutrient medium. Afterwards, the cells were incubated for 24 ± 2 h at 37°C in a humidified atmosphere […]
On the day of the experiment, the medium was removed, and each well was washed with nutrient medium (300 μL). Afterwards 200 μL of nutrient medium, 25 μL of the 177Lu-labeled peptide (0.3 pmol, n = 6) and either 25 μL of nutrient medium for internalization studies ( n = 3) or 25 μL of [natLu]Lu-DOTA-PP-F11N (10 μmol) for competition studies ( n = 3) were added. Thereafter, the assay was incubated for various time points (1, 2, 4 and 6 h) at 37°C in a humidified atmosphere (5% CO2). After incubation, the cells were put on ice for at least 1 min to stop internalization kinetics and the supernatant was collected. Then, the cells were washed with an ice-cold nutrient medium (300 μL) and both fractions were unified. […] The radioactivity of the supernatant, the acid wash and the lysed fractions were quantified using a γ-counter. […]

[2] = Stability studies in human serum; assay type: in vitro ADME; conditions: 37 °C, 24 h; for Intact peptide (%): n = 3, 1440 min; for SiOH-containing analog (%): n = 3, analog with hydrolyzed SiFA moiety
Protocol: In vitro stability studies in human serum after incubation at 37 °C for 24 h were performed as described in the Supplemental Material.
Stability Studies in Human Serum. The 177Lu- as well as 67Ga-labeled CCK-2R ligands (1 nmol,
approx. 5 MBq) were incubated for 24 h in human serum (200 μL) at 37 °C. After incubation, ice-cold
EtOH (125 μL) and MeCN (375 μL) were added and the suspension was centrifuged for 5 min at
5000 rpm. Then, the supernatant was transferred into new vials and centrifuged for another 5 min at
5000 rpm. After separating the precipitate from the solution, the stability of the ligands was determined

Row | SMILES | logD7.4 ([1]; n-octanol/PBS pH 7.4) | Intact peptide (%) [2] | SiOH-containing analog (%) [2] | logD ([1]; pH 7.4, n-octanol/PBS pH 7.4, read-out: logD7.4) | SiOH-containing analog (%) ([2]; listed as [177Lu]Lu-DOTA-rhCCK-16)
1 | CCCC[C@H](NC(=O)[C@H](Cc1c[nH]c2ccccc12)NC(=O)CNC(=O)[C@H](Cc1ccc(O)cc1)NC(=O)[C@H](C)NC(=O)CC[C@@H](NC(=O)CC[C@@H](NC(=O)CC[C@@H](NC(=O)CC[C@@H](NC(=O)CC[C@@H](NC(=O)CC[C@@H](NC(=O)CC[C@@H](NC(=O)CC[C@@H](NC(=O)[C@@H](CNC(=O)c1ccc([Si](F)(C(C)(C)C)C(C)(C)C)cc1)NC(=O)CN1CCN(CC(=O)O)CCN(CC(=O)O)CCN(CC(=O)O)CC1)C(=O)O)C(=O)O)C(=O)O)C(=O)O)C(=O)O)C(=O)O)C(=O)O)C(=O)O)C(=O)N[C@@H](CC(=O)O)C(=O)N[C@@H](Cc1ccccc1)C(N)=O [[^19F]F-[^177Lu]Lu-DOTA-rhCCK-18] [metal not drawn] | −2.69 ± 0.06 | 25.3 ± 3.1% | 67.7 ± 3.1% | – | –
2 | CCCC[C@H](NC(=O)[C@H](Cc1c[nH]c2ccccc12)NC(=O)CNC(=O)[C@H](Cc1ccc(O)cc1)NC(=O)[C@H](C)NC(=O)CC[C@@H](NC(=O)CC[C@@H](NC(=O)CC[C@@H](NC(=O)CC[C@@H](NC(=O)CC[C@@H](NC(=O)CC[C@@H](NC(=O)[C@@H](CNC(=O)c1ccc([Si](F)(C(C)(C)C)C(C)(C)C)cc1)NC(=O)CN1CCN(CC(=O)O)CCN(CC(=O)O)CCN(CC(=O)O)CC1)C(=O)O)C(=O)O)C(=O)O)C(=O)O)C(=O)O)C(=O)O)C(=O)N[C@@H](CC(=O)O)C(=O)N[C@@H](Cc1ccccc1)C(N)=O [[^177Lu]Lu-DOTA-rhCCK-16, metal not drawn] | – | 21.8 ± 0.8% | – | -2.7 ± 0.09 | 69.1 ± 1.0%
